Experimental findings from patent publication US20100286193A1, “Novel Azabicyclo[3.2.1]Oct-2-Ene Derivatives and Their Use as Monoamine Neurotransmitter Re-Uptake Inhibitors” (priority 2005, published 2010) are described below.

Counter-ions that a name gives are not always drawn.

Data set [1] has as its target T1, dopamine (DA) reuptake in synaptosomes (Rattus norvegicus, UniProt P23977).
T1 construct: in synaptosomes as described in WO 97/16451; from tissue
In words: Inhibition of dopamine reuptake in synaptosomes. Format: biochemical. The note with it: 3H-DA, as described in WO 97/16451, read-out: DA-uptake IC50.

Data set [2] deals with T2, serotonine (5-HT) reuptake in synaptosomes (Rattus norvegicus, UniProt P31652).
T2 construct: in synaptosomes as described in WO 97/16451; from tissue
T2 sequence (P31652 whole entry): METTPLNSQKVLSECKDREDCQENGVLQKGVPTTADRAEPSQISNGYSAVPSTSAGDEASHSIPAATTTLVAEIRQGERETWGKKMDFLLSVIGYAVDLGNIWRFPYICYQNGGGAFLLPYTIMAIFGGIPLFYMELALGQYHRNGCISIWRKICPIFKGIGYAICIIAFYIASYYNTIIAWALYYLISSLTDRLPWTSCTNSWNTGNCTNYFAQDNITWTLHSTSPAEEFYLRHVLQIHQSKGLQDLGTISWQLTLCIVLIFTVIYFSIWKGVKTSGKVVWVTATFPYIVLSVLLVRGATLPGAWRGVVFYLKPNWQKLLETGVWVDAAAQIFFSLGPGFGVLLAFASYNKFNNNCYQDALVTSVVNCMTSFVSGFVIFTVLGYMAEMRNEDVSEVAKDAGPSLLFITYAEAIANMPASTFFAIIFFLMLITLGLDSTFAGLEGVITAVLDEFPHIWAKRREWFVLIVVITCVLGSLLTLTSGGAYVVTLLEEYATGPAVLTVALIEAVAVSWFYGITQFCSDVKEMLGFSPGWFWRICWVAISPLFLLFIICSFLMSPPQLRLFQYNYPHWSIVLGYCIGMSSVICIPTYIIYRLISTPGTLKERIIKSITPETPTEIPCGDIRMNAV
As to the kind of experiment: Inhibition of serotonin reuptake in synaptosomes. In kind it is biochemical. The note with it: 3H-5-HT, as described in WO 97/16451, read-out: 5-HT-uptake IC50.

Data set [3] deals with T3, noradrenaline (NA) reuptake in synaptosomes (Rattus norvegicus, UniProt Q63380).
T3 construct: in synaptosomes as described in WO 97/16451; from tissue
T3 sequence (Q63380 1-617): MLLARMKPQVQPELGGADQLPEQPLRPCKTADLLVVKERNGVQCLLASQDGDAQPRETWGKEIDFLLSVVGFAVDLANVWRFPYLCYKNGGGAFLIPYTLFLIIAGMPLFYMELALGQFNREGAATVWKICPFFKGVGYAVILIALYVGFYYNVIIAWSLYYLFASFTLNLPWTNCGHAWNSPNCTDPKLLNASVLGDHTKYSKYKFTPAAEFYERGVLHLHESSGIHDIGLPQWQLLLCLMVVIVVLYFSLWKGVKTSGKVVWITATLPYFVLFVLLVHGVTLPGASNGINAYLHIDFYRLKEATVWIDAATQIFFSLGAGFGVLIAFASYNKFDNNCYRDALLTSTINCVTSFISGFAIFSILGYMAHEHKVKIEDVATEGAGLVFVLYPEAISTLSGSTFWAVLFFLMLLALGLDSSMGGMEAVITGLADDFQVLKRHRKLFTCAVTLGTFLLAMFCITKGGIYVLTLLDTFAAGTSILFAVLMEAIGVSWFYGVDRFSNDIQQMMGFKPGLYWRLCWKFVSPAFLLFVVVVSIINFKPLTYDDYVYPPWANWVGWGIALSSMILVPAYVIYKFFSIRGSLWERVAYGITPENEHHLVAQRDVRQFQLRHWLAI
In words: Inhibition of noradrenaline reuptake in synaptosomes. Format: biochemical. The note with it: 3H-NA, as described in WO 97/16451, read-out: NA-uptake IC50.

T1 sequence (P23977 whole entry): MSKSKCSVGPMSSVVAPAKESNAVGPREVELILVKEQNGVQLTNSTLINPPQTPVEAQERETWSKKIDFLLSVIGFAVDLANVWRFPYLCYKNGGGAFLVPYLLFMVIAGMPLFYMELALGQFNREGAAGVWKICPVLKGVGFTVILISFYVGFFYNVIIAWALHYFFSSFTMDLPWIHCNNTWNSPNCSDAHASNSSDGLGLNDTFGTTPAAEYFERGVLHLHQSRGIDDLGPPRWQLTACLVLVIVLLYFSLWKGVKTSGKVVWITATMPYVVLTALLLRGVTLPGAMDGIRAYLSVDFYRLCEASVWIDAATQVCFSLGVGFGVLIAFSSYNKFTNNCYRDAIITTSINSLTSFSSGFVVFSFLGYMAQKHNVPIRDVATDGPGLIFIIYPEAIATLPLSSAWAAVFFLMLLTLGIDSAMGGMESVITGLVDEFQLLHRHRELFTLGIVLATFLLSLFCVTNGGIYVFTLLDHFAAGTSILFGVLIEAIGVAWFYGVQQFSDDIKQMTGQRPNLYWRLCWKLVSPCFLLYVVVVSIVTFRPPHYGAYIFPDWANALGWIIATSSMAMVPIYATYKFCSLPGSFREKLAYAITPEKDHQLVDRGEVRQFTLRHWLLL

`Cc1ccc(C2=CC3CCC(C2)N3)cc1Br` (racemic) [(±)-3-(3-Bromo-4-methylphenyl)-8-H-8-azabicyclo[3.2.1]oct-2-ene hydrochloric acid salt]: the IC50 (commonly the concentration at which inhibition is half-maximal) in data set [1] was 13 nM; in data set [2], 1.4 nM; in data set [3] it was 15 nM.
`Cc1ccc(C2=CC3CCC(C2)N3)cc1Cl` (single isomer, unassigned; (-)) (as salt: tartaric acid salt) [(−)-3-(3-Chloro-4-methylphenyl)-8-H-8-azabicyclo[3.2.1]oct-2-ene L-tartaric acid salt]: the melting point (usually the temperature of the solid-liquid transition) is 156.3 to 161.5 °C.
Turning to `Cc1ccc(C2=CC3CCC(C2)N3)cc1Cl` (single isomer, unassigned; (-)) [(−)-3-(3-Chloro-4-methylphenyl)-8-H-8-azabicyclo[3.2.1]oct-2-ene L-tartaric acid salt], the IC50 turned out to be 140 nM in data set [1], 1.8 nM in data set [2] and 6.8 nM in data set [3].
As for `Cc1cc(C2=CC3CCC(C2)N3)ccc1Cl` (single isomer, unassigned; (+)) [(+)-3-(4-Chloro-3-methylphenyl)-8-H-8-azabicyclo[3.2.1]oct-2-ene D-tartaric acid salt], the IC50 stood at 110 nM in data set [1], 2.3 nM in data set [2] and 8.2 nM in data set [3].
Compound `Cc1cc(C2=CC3CCC(C2)N3)ccc1Cl` (single isomer, unassigned; (+)) (as salt: tartaric acid salt) [(+)-3-(4-Chloro-3-methylphenyl)-8-H-8-azabicyclo[3.2.1]oct-2-ene D-tartaric acid salt] returned a melting point of 164 to 177 °C.
